Source: PubChem BioAssay AID806 (SRMLSC, 2007)
Active and inactive are the calls of the source. No rule for the calls is given here.

Test system: virus-infected cells, CPE inhibition, dose response
Assay: PubChem AID 806
Settings: for EC90: measured here: EC90 CPE inhibition; for CC50: measured here: cytotoxicity, cell viability IC50

Row | SMILES | EC50 | EC90 [µM] | CC50 [µM]
1 | O=C(Cn1cnc2ccccc2c1=O)N(Cc1ccco1)c1ccc(O)cc1 | > 60 µM (inactive) | > 60 | > 60
2 | COCCNC(=O)C(c1ccccc1)N(C(=O)Cn1nnc2ccccc21)c1cccnc1 (stereo unspecified) | > 60 µM (inactive) | > 60 | > 60
3 | O=C(CSc1ccc2nnc(-c3cccnc3)n2n1)NCc1ccco1 | > 60 µM (inactive) | > 60 | > 60
4 | COCCNC(=O)c1noc2c1CCc1cc(OC)ccc1-2 | > 60 µM (inactive) | > 60 | > 60
5 | O=C(Nc1ccccc1-c1ccccc1)c1ccc(NC(=O)c2ccco2)cc1 | > 60 µM (inactive) | > 60 | > 60
6 | Cc1ccc(/C=C/C(=O)c2c(C)cc(C)[nH]c2=O)cc1 | > 60 µM (inactive) | > 60 | > 60
7 | Cc1ccc(NC(=O)C2=C(O)c3sccc3N(C)S2(=O)=O)cc1 | > 60 µM (inactive) | > 60 | > 60
8 | COc1ccccc1Cn1c(=O)c2ccccc2n2c(SCc3csc(C)n3)nnc12 | > 60 µM (inactive) | > 60 | > 60
9 | O=C1NCCCc2c1oc1ccc(O)cc21 | > 60 µM (inactive) | > 60 | > 60
10 | CCOc1ncccc1C(=O)NCc1ccc(OC)cc1 | > 60 µM (inactive) | > 60 | > 60
11 | COc1cccc(C(=O)Nc2ccc(-c3nnc(-c4ccco4)o3)cc2)c1 | > 60 µM (inactive) | > 60 | > 60
12 | Cc1nc2nc(-c3ccc(Cl)cc3)[nH]n2c(=O)c1Cc1ccccc1 | > 60 µM (inactive) | > 60 | > 60
13 | COC(=O)c1ccc(CSc2nnc3n(Cc4ccccc4OC)c(=O)c4ccccc4n23)o1 | > 60 µM (inactive) | > 60 | > 60
14 | O=C(NCc1cccs1)c1ccc(N2CCCCC2)nc1 | > 60 µM (inactive) | > 60 | > 60
15 | CCC(C)(C)NC(=O)C(c1cccnc1)N(CCOC)C(=O)Cn1nnc2ccccc21 (stereo unspecified) | > 60 µM (inactive) | > 60 | > 60
16 | O=C1CC(C(=O)Nc2ccccc2)C2(CCCC2)O1 (stereo unspecified) | > 60 µM (inactive) | > 60 | > 60
17 | COc1ccc(OC)c(C2=NOC(C(=O)Nc3cc(C)nn3-c3ccccc3)C2)c1 (stereo unspecified) | > 60 µM (inactive) | > 60 | > 60
18 | O=C(Cc1ccccc1)Nc1ccc(-c2nnc(-c3ccco3)o2)cc1 | > 60 µM (inactive) | > 60 | > 60
19 | CCc1c(C)nc2[nH]nc(-c3ccccc3C)n2c1=O | > 60 µM (inactive) | > 60 | > 60
20 | O=C(c1ccco1)N1CCn2c1nc1ccccc12 | > 60 µM (inactive) | > 60 | > 60
21 | O=C(Nc1ccc(Cl)cn1)c1cc2ccccc2o1 | > 60 µM (inactive) | > 60 | > 60
22 | COc1ccc(OC)c(Nc2ncnc3c2cnn3-c2ccccc2)c1 | > 60 µM (inactive) | > 60 | > 60
23 | Cc1ccc(S(=O)(=O)N2CCCCC2C(=O)N2CCN(C)CC2)cc1 (stereo unspecified) | > 60 µM (inactive) | > 60 | > 60
24 | CCOC(=O)/C=c1\s/c(=C\c2ccccc2OC)c(=O)n1CC(=O)N1CCOCC1 | > 60 µM (inactive) | > 60 | > 60
25 | COc1ccccc1Cn1c(=O)c2ccccc2n2c(SCC(=O)N3CCCCC3)nnc12 | > 60 µM (inactive) | > 60 | > 60

Row | SMILES | EC50 | EC90 [µM] | CC50 [µM]
26 | CC1(C)Cc2c(c(N3CCOCC3)nc3sc4c(NN)ncnc4c23)CS1 | > 60 µM (inactive) | > 60 | 4.49
27 | CCC(=O)N1CCn2c1nc1ccccc12 | > 60 µM (inactive) | > 60 | > 60
28 | CCSc1nnc(-c2ccncc2)o1 | > 60 µM (inactive) | > 60 | > 60
29 | COc1ccc(-c2csc(NC(=O)C3CCCCN3S(=O)(=O)c3ccccc3)n2)cc1 (stereo unspecified) | > 60 µM (inactive) | > 60 | > 60
30 | Cc1cc(NC(=O)CSc2nnc(-c3cccnc3)n2C2CCCCC2C)no1 (stereo unspecified) | > 60 µM (inactive) | > 60 | > 60
31 | O=C(c1cc(-c2ccc(Cl)cc2)n(-c2cc(Cl)ccc2Cl)n1)N1CCOCC1 | > 60 µM (inactive) | > 60 | > 60
32 | NC1C2CN(c3nc4c(cc3F)c(=O)c(C(=O)O)cn4-c3ccc(F)cc3F)CC12 (stereo unspecified) | – | > 60 | 45.1
33 | Cc1nc2scc(-c3ccco3)c2c(=O)n1/N=C/N(C)C | > 60 µM (inactive) | > 60 | > 60
34 | CC(C)(C)c1ccc(S(=O)(=O)N2CCCCC2C(=O)NCc2ccccn2)cc1 (stereo unspecified) | > 60 µM (inactive) | > 60 | > 60
35 | Cc1ccc(-c2nnc3ccc(SCC(=O)NCc4ccco4)nn23)cc1 | > 60 µM (inactive) | > 60 | > 60
36 | O=C(NCc1ccco1)C1CCCCN1S(=O)(=O)c1ccc(F)cc1 (stereo unspecified) | > 60 µM (inactive) | > 60 | > 60
37 | Cc1nn2c(C(F)(F)F)cc(-c3ccc(Cl)cc3)nc2c1C(=O)N1CCOCC1 | > 60 µM (inactive) | > 60 | > 60
38 | CCc1c(C)nc2[nH]nc(-c3ccccc3)n2c1=O | > 60 µM (inactive) | > 60 | > 60
39 | COc1ccccc1NC(=O)CS(=O)(=O)c1cccc2nsnc12 | > 60 µM (inactive) | > 60 | > 60
40 | COc1ccccc1NC(=O)c1oc2ccc(C)cc2c1C | > 60 µM (inactive) | > 60 | > 60
41 | O=C(NCc1cccnc1)C1CCCCN1S(=O)(=O)c1ccc(F)cc1 (stereo unspecified) | > 60 µM (inactive) | > 60 | > 60
42 | CCC1CCCCN1C(=O)Nc1cccc(NC(=O)N2CCCCC2CC)c1 (stereo unspecified) | > 60 µM (inactive) | > 60 | > 60
43 | O=C(Nc1cccc(O)c1)c1noc2c1CCc1ccccc1-2 | > 60 µM (inactive) | > 60 | > 60
44 | CCOC(=O)/C=C1\SCC(=O)N1CC(=O)Nc1ccc2c(c1)CCC2 | > 60 µM (inactive) | > 60 | > 60
45 | O=C1Cn2c(nc3ccccc32)N1c1ccccc1F | > 60 µM (inactive) | > 60 | > 60
46 | COCCNC(=O)C(c1ccco1)N(C(=O)Cn1nnc2ccccc21)c1ccccc1C (stereo unspecified) | > 60 µM (inactive) | > 60 | > 60
47 | CN(C)CCNc1ncnc2c1sc1nc(N3CCOCC3)c3c(c12)CC(C)(C)SC3 | > 60 µM (inactive) | > 60 | 16.3
48 | Cc1ccc(OCC(=O)Nc2ccc(-c3nnc(-c4ccco4)o3)cc2)cc1 | > 60 µM (inactive) | > 60 | > 60
49 | O=C1CC(C(=O)Nc2cccc3ccccc23)C2(CCCC2)O1 (stereo unspecified) | > 60 µM (inactive) | > 60 | > 60
